# According to patent US7511062B2, “Substituted 2-quinolyl-oxazoles useful as PDE4 inhibitors” (Schering Corporation, priority 2004, dated 2009):
# Biological target: Human PDE4 Enzyme
# Assay: PDE4 screening assay ([3H]cAMP SPA)
# Format: biochemical
# Conditions: human neutrophil PDE4, [3H]cAMP SPA
# Protocol: The neutrophils were isolated from human blood using a standard procedure, then homogenized with a glass-glass homogenizer in a buffer containing 20 mM Tris/HCl (pH 8.0), protease inhibitor cocktail tablet (Cat. No. 1836145/Boehringer Mannheim), 2 mM EDTA, 1% Triton X-100 and 0.5% deoxycholate. After stirring for 2 h at 4° C., the samples were centrifuged at 100,000 g for 1 h. The supernatants were collected, filtered and applied to Mono Q column chromatography. The fractions containing the activity of hydrolyzing cAMP were determined and pooled as the enzymatic source of the PDE4 screening assay.
# 2. PDE4 Assay and Compound Screening
# The PDE4 assays were performed using Phosphodiesterase [^3H]cAMP SPA enzyme assay kits and its procedures (Cat. No. TRKQ 7090, Amersham). The assay procedures are described briefly as follows. The diluted PDE4 enzyme, 10× assay buffer and water were mixed at a ratio of 1:1:6 (10 μl/10 μl/60 μl). 80 μl aliquots of this mixture were added into the test wells of a 96-well Microlite plate (Cat. No. 7416, ThermoLabsystems). Enzyme dilution buffer, instead of the diluted enzyme, and water were added into the wells of negative control (background). 10 μl test compounds in 10% DMSO, standard inhibitor in 10% DMSO or 10% DMSO (for positive and negative controls) were added into the corresponding wells, respectively. After a 10 min incubation at RT, the reactions were initiated by addition of 10 μl pre-diluted [^3H]cAMP into each well, then incubated at 30° C. for 30 min. The reactions were stopped by addition of 50 μl SPA beads into the test wells, then counted in a β-counter over 30 min ˜24 hr.
# 10× Assay Buffer: 500 mM Tris/HCl pH 7.5, 83 mM MgCl2, 17 mM EGTA
# [^3H]cAMP: [3H] cAMP (40-60 Ci/mmol) is diluted at a 1:200 ratio with water. The final concentration is 0.005 μCi/μl
# Yttrium SPA Beads: 500 mg of beads was reconstituted with 28 ml of water, stored at 4° C.
row,Structure (SMILES),IC50
1,COc1ccc(-c2nc(C(=O)N3CCC(Nc4ncccn4)CC3)c([C@H](C)N)o2)c2ccc(C(F)(F)F)nc12 [26-177],3 nM
2,COc1ccc(-c2nc(C(=O)N3CCN(C(=O)C4CC4)CC3)c([C@H](C)N)o2)c2ccc(C(F)(F)F)nc12 [26-293],0.5 nM
3,COc1ccc(-c2nc(C(=O)N[C@H]3CCC[C@@H]3O)c([C@H](C)N)o2)c2ccc(C(F)(F)F)nc12 [26-417],1.4 nM
4,COc1ccc(-c2nc(C(=O)NCc3ccc(F)cc3F)c([C@@H](N)CO)o2)c2ccc(C(F)(F)F)nc12 [38-3],1.8 nM

# Now those with a lower IC50, led by results:
row,IC50,Structure (SMILES)
1,0.07 nM,COc1ccc(-c2nc(C(=O)NC3CCCc4nccnc43)c([C@H](C)N)o2)c2ccc(C(F)(F)F)nc12 (mixture of isomers) [26-42]
2,0.14 nM,COc1ccc(-c2nc(C(=O)NCc3csc4ccccc34)c(CN)o2)c2ccc(C(F)(F)F)nc12 [13-106]
3,0.01 nM,COc1ccc(-c2nc(C(=O)NCc3coc4ccccc34)c([C@H](C)N)o2)c2ccc(C(F)(F)F)nc12 [26-92]
4,0.2 nM,COc1ccc(-c2nc(C(=O)N3C[C@](O)(c4ncccn4)C[C@H]3C(=O)OC(C)C)c([C@H](C)N)o2)c2ccc(C(F)(F)F)nc12 [26-241]
5,0.03 nM,COc1ccc(-c2nc(C(=O)NC[C@@H](C)NC(=O)C3CC3)c([C@H](C)N)o2)c2ccc(C(F)(F)F)nc12 [26-444]
